Tests used:
[1] = tested on: Zygosaccharomyces bailii; assay: Growth inhibition assay on solid medium, spotted serial dilutions; type: cell-based; settings: same concentrations as in the combinations, each agent alone (FIG. 2A)
Description: Images were captured after 2 d (YEPD) or 3 d (YNB) growth at 30 C. For growth-inhibition assays on solid medium with R. solani, circular sections of ˜0.5 cm diameter were excised from cultures on PDA and transferred to the centre of fresh plates. Images were captured after 3 d growth at 28 C and the total mycelial area determined using ImageJ and GIMP2 software. Where specified, chemical supplements were included in the solid media.

[2] = tested on: Rhizoctonia solani; assay: Growth inhibition assay on solid medium (PDA agar), mycelial outgrowth; type: cell-based; settings: 300 μg ml^−1 paromomycin or 15 mM molybdate alone (FIG. 2B)
Description: For qualitative growth-inhibition assays with yeasts on solid medium, experimental cultures prepared as described above were adjusted to OD600˜2.0, 0.2, 0.02, 0.002, 0.0002 and the dilution series spotted (4 μl) on to either YEPD agar (above) or yeast nitrogen base (YNB) agar: 0.69% (w/v) yeast nitrogen base without amino acids (Formedium; Norfolk, UK) supplemented with 2% (w/v) D-glucose, 0.06 mg ml^−1 leucine, 0.02 mg ml^−1 histidine, 0.02 mg ml^−1 uracil and 2% (w/v) bacteriological agar (Sigma-Aldrich). Images were captured after 2 d (YEPD) or 3 d (YNB) growth at 30 C. For growth-inhibition assays on solid medium with R. solani, circular sections of ˜0.5 cm diameter were excised from cultures on PDA and transferred to the centre of fresh plates. Images were captured after 3 d growth at 28 C and the total mycelial area determined using ImageJ and GIMP2 software. Where specified, chemical supplements were included in the solid media.

[3] = tested on: R. solani; assay: Growth inhibition assay in PDB medium (OD600); settings: same concentrations as in the combinations (FIG. 6, FIG. 7)
Description: (§1) Candida spp. or S. cerevisiae were inoculated from YEPD plates to YEPD broth (composition as above, minus agar) and cultured overnight at 30° C., 120 rev min^−1. Overnight cultures were diluted to OD600˜0.5 and cultured for a further 4 h in fresh YEPD before dilution of these experimental cultures to OD600˜0.01 or ˜0.1 in the same medium. Aliquots (300 μl) of the diluted culture plus any chemical supplements (see above), as specified, were transferred to 48-well plates (Greiner Bio-One). OD600 was monitored continuously in a BioTek Powerwave-XS microplate spectrophotometer, with shaking at 30 C. […] Spores of R. solani or Z. tritici were inoculated from PDA plates to potato dextrose broth (PDB; Fluka) (20,000 spores ml^−1). Aliquots (150 μl) of the diluted culture plus any chemical supplements, as specified, were transferred to 96-well plates (Greiner Bio-one) and cultured over 8 d at 24° C., 120 rev min-1. OD600 was monitored every day in a BioTek EL800 microplate spectrophotometer.

[4] = tested on: Candida albicans; assay: Growth inhibition assay in YEPD broth (OD600); type: cell-based; settings: 25 μM chromate, 200 μg ml^−1 paromomycin or 10 μg ml^−1 hygromycin, each alone (FIG. 1A)
Description: as §1

Compound	effect on growth, agent alone [1]	growth-inhibitory effect, agent alone [2]	inhibitory effect, agent individually [3]	inhibitory effect on growth, agent alone [4]
[O]=[Mo](=[O])([O-])[O-] [molybdate]	neither agent alone had a significant effect on growth	neither agent alone had a marked growth-inhibitory effect	–	–
[Cu] [copper]	–	–	none of these agents had an inhibitory effect individually	–
CN(C)C(=S)SSC(=S)N(C)C [thiram]	–	–	none of these agents had an inhibitory effect individually	–
O=S(=O)(O)c1cc(N=C=S)ccc1C=Cc1ccc(N=C=S)cc1S(=O)(=O)O [DIDS, 4,4′-diisothio-cyanotostilbene-2,2′-disulphonate]	neither agent alone had a significant effect on growth	–	–	–
O=[Se](=O)(O)O [selenate]	–	–	none of these agents had an inhibitory effect individually	–
CCC[C@H](N)C(=O)O [norvaline]	–	–	none of these agents had an inhibitory effect individually	–
NC[C@@H]1O[C@H](O[C@H]2[C@@H](O)[C@H](O[C@@H]3[C@@H](O)[C@H](N)C[C@H](N)[C@H]3O[C@H]3O[C@H](CO)[C@@H](O)[C@H](O)[C@H]3N)O[C@@H]2CO)[C@H](N)[C@@H](O)[C@@H]1O [paromomycin]	neither agent alone had a significant effect on growth	neither agent alone had a marked growth-inhibitory effect	–	no discernible inhibitory effect

From patent publication US20180117082A1, “ANTIFUNGAL COMPOSITION/TREATMENT” (THE UNIVERSITY OF NOTTINGHAM, priority 2015, published 2018)
